Marks after values point to notes of the source that are not given here.
Assays:
[1] = Horizontal screen test, acute motor toxicity; assay type: in vivo, mice; details: intratracheal 100 μg/kg, any time point of the time course experiment
Protocol: The horizontal screen test was used to assess the acute motor toxicity of intratracheal midazolam (100 μg/kg) in the time course experiment.

PTZ-induced seizures = test: PTZ seizure threshold test in mice (intravenous PTZ infusion), Example 1; assay type: in vivo
Protocol: (§1) Male NIH Swiss mice (22-30 g) were kept in a vivarium under controlled environmental conditions (temperature, 22-26° C.; humidity, 40-50%) with an artificial 12-h light/dark cycle. Wood chips were used in all cages. Experiments were performed during the light phase of the light/dark cycle after a minimum 30-min period of acclimation to the experimental room. The animal facilities were fully accredited by the Association for Assessment and Accreditation of Laboratory Animal Care. All studies were performed under protocols approved by the Animal Care and Use Committee of the University of California, Davis in strict compliance with the Guide for the Care and Use of Laboratory Animals of the National Research Council (National Academy Press, Washington, D.C.).
(§2) Intratracheal administration of midazolam was carried out as described by Oka et al. (2006). In brief, mice were briefly anesthetized using isoflurane anesthesia (4% isoflurane). The animals were immediately placed on a surgical board held at a 60° angle. The animal's mouth was kept open by hanging the upper incisors on a hook to facilitate detection of the epiglottis. An operating light was used to illuminate the view of the pharynx after displacement of the tongue with a spatula. A syringe fitted with a blunted 24-gauge/25-mm was pushed against the soft palate to enter the trachea past the vocal cords. When the tracheal cartilage ring is felt, the needle is considered properly placed within the tracheal lumen. The needle was inserted almost to the bottom of the trachea. When the animals began to show signs that the anesthesia was waning, the liquid sample was gently injected at a dose volume of 0.25 ml/kg. After the injection of solution, air (1 ml syringe) was blown inside the lungs to uniformly distribute the drug in the lungs. Following the injection, the needle was gently removed and animal was held vertically for 2 min to facilitate the downward movement of liquid in the lungs. The animal was allowed 10 min to recover fully from the anesthesia as confirmed by normal spontaneous exploratory behavior. Seizure testing then commenced. For each of the seizure tests, we verified that there was no residual effect of the anesthetic on responsiveness.
The thresholds for various behavioral seizure stages induced by the GABA receptor antagonists PTZ and picrotoxin were determined by infusing the convulsant drugs via a 27 gauge-¾ inch “butterfly” needle inserted into the lateral tail vein. The needle was secured to the tail vein by a narrow piece of adhesive tape and the animal was permitted to move freely inside an inverted 2 litre glass beaker with free aeration from the top. PTZ (10 mg/ml) (Akula et al., 2008), and picrotoxin (1 mg/ml) (Chan et al., 2006) was infused at a constant rate of 0.5 ml/min using a Beckton Dickinson (1 ml) syringe mounted on an infusion pump (Model ‘11’ plus syringe pump; Harvard Apparatus, Holliston, Mass., USA). The syringe was connected to the needle by polyethylene tubing. The infusion was stopped at 3 min or at the onset of tonic extension, whichever occurred first. The thresholds to the following endpoints were determined: (i) the first myoclonic jerk; (ii) the onset of generalized clonus with loss of righting reflexes; and (iii) the onset of tonic extension. Latencies were measured from the start of convulsant infusion to the onset of all these three events. The threshold value (mg/kg) for each endpoint was determined according to the following formula: (infusion duration [sec]×infusion rate [ml/min]×convulsant drug concentration [mg/ml]×1000)/(60 [sec]×weight of mouse [g]).
Results are expressed as mean±S.E.M.; the significance of the difference in the responses of treatment groups with respect to control is based on one-way analysis of variance (ANOVA) followed by specific post-hoc comparisons using Tukey's test. Differences were considered statistically significant when the probability of error was less than 0.05 (P<0.05). […]

PTZ-induced convulsions = PTZ-induced convulsions in mice (PTZ 80 mg/kg i.p.); assay type: in vivo
Protocol: as §1, §2
PTZ was administered intraperitoneally at a dose of 80 mg/kg, which causes clonic convulsions in >97% of mice (Dhir et al., 2006). […] The time of onset of myoclonic jerks, clonus and tonic extension; and the incidence of lethality was recorded.
Results are expressed as mean±S.E.M.; the significance of the difference in the responses of treatment groups with respect to control is based on one-way analysis of variance (ANOVA) followed by specific post-hoc comparisons using Tukey's test. Differences were considered statistically significant when the probability of error was less than 0.05 (P<0.05). Control values in the threshold tests were the mean threshold values for vehicle-treated groups.

[2] = test system: picrotoxin-induced seizure; test: Picrotoxin seizure threshold test in mice (intravenous infusion); assay type: in vivo
[3] = intratracheal 12.5 μg/kg, pretreatment 10 min
[4] = intraperitoneal 100 μg/kg, pretreatment 10 min
[5] = intraperitoneal 500 μg/kg, pretreatment 10 min
[6] = intraperitoneal 750 μg/kg, pretreatment 10 min
[7] = intraperitoneal 1000 μg/kg, pretreatment 10 min
[8] = intratracheal 25 μg/kg, pretreatment 7 min
[9] = intratracheal 25 μg/kg, pretreatment 10 min
[10] = intratracheal 50 μg/kg, pretreatment 7 min
[11] = intratracheal 50 μg/kg, pretreatment 10 min
[12] = intratracheal 100 μg/kg, pretreatment 7 min
[13] = intratracheal 100 μg/kg, pretreatment 10 min
[14] = intratracheal 200 μg/kg, pretreatment 10 min

Cc1ncc2n1-c1ccc(Cl)cc1C(c1ccccc1F)=NC2 [Midazolam, midazolam]
acute motor toxicity, horizontal screen test [1]: No motor toxicity was observed
anticonvulsant activity, PTZ i.v. seizure threshold model (PTZ-induced seizures; 25 μg/kg and 50 μg/kg intratracheally, 10 minutes before intravenous PTZ (FIG. 5)): active as anticonvulsant
dose required for anticonvulsant activity, PTZ i.v. seizure threshold model (PTZ-induced seizures; administered intraperitoneally (FIG. 5)): 0.5 mg/kg
dose required for anticonvulsant activity, PTZ i.v. seizure threshold model (PTZ-induced seizures; administered intravenously, 10 minutes before intravenous PTZ (FIG. 5)): 0.1 to 0.2 mg/kg
thresholds for all seizure signs (myoclonic jerk, clonus, tonic extension) vs vehicle (PTZ-induced seizures; intraperitoneal 500, 1000, 2500 and 5000 μg/kg, pretreatment 15 min (FIG. 1A)): significant elevation
thresholds for seizure signs vs vehicle (PTZ-induced seizures; [3]): enhanced the seizure threshold for clonic but ineffective against tonic extensor phases
time of maximal effect (PTZ-induced seizures; intratracheal 100 μg/kg): 5 to 15 min
time course: threshold vs vehicle pretreated animals (PTZ-induced seizures; intratracheal 100 μg/kg, pretreatment 5, 10, 20, 40 and 60 min (FIG. 2)): elevation in threshold
thresholds for seizure signs vs vehicle (PTZ-induced seizures; intratracheal 25, 50 and 100 μg/kg, pretreatment 10 min (FIG. 1B)): effective
Mortality (PTZ-induced convulsions; [4]): 66.67* percent
Percent showing clonus (PTZ-induced convulsions; [4]): 100%
Percent showing extensor (PTZ-induced convulsions; [4]): 66.67* percent
Percent showing myoclonic jerks (PTZ-induced convulsions; [4]): 100%
Mortality (PTZ-induced convulsions; [5]): 0* percent
Percent showing clonus (PTZ-induced convulsions; [5]): 83.33%
Percent showing extensor (PTZ-induced convulsions; [5]): 0* percent
Percent showing myoclonic jerks (PTZ-induced convulsions; [5]): 100%
Mortality (PTZ-induced convulsions; [6]): 0* percent
Percent showing clonus (PTZ-induced convulsions; [6]): 33.33* percent
Percent showing extensor (PTZ-induced convulsions; [6]): 0* percent
Percent showing myoclonic jerks (PTZ-induced convulsions; [6]): 83.33%
Mortality (PTZ-induced convulsions; [7]): 0* percent
Percent showing clonus (PTZ-induced convulsions; [7]): 0* percent
Percent showing extensor (PTZ-induced convulsions; [7]): 0* percent
Percent showing myoclonic jerks (PTZ-induced convulsions; [7]): 50* percent
Mortality (PTZ-induced convulsions; [3]): 83.33%
Percent showing clonus (PTZ-induced convulsions; [3]): 100%
Percent showing extensor (PTZ-induced convulsions; [3]): 83.33%
Percent showing myoclonic jerks (PTZ-induced convulsions; [3]): 100%
Mortality (PTZ-induced convulsions; [8]): 0* percent
Percent showing clonus (PTZ-induced convulsions; [8]): 83.33%
Percent showing extensor (PTZ-induced convulsions; [8]): 0* percent
Percent showing myoclonic jerks (PTZ-induced convulsions; [8]): 100%
Mortality (PTZ-induced convulsions; [9]): 50* percent
Percent showing clonus (PTZ-induced convulsions; [9]): 100%
Percent showing extensor (PTZ-induced convulsions; [9]): 50* percent
Percent showing myoclonic jerks (PTZ-induced convulsions; [9]): 100%
Mortality (PTZ-induced convulsions; [10]): 0* percent
Percent showing clonus (PTZ-induced convulsions; [10]): 50* percent
Percent showing extensor (PTZ-induced convulsions; [10]): 0* percent
Percent showing myoclonic jerks (PTZ-induced convulsions; [10]): 66.66* percent
Mortality (PTZ-induced convulsions; [11]): 16.66* percent
Percent showing clonus (PTZ-induced convulsions; [11]): 66.66* percent
Percent showing extensor (PTZ-induced convulsions; [11]): 16.66* percent
Percent showing myoclonic jerks (PTZ-induced convulsions; [11]): 83.33%
Mortality (PTZ-induced convulsions; [12]): 0* percent
Percent showing clonus (PTZ-induced convulsions; [12]): 0* percent
Percent showing extensor (PTZ-induced convulsions; [12]): 0* percent
Percent showing myoclonic jerks (PTZ-induced convulsions; [12]): 0* percent
Mortality (PTZ-induced convulsions; [13]): 0* percent
Percent showing clonus (PTZ-induced convulsions; [13]): 50* percent
Percent showing extensor (PTZ-induced convulsions; [13]): 0* percent
Percent showing myoclonic jerks (PTZ-induced convulsions; [13]): 50* percent
Mortality (PTZ-induced convulsions; [14]): 0* percent
Percent showing clonus (PTZ-induced convulsions; [14]): 0* percent
Percent showing extensor (PTZ-induced convulsions; [14]): 0* percent
Percent showing myoclonic jerks (PTZ-induced convulsions; [14]): 0* percent
seizure threshold, picrotoxin infusion [2, 4]: effective in enhancing the seizure threshold for only clonic phase and ineffective against tonic extension
thresholds for all seizure signs, picrotoxin infusion ([2]; intraperitoneal 250, 500 and 1000 μg/kg, pretreatment 10 min (FIG. 3A)): significant elevation
seizure thresholds, picrotoxin infusion ([2]; intratracheal 25 and 50 μg/kg, pretreatment 10 min (FIG. 3B)): effective

Reference: patent US20130309306A1, “INTRAPULMONARY BENZODIAZEPINE FOR THE TREATMENT AND PREVENTION OF SEIZURES” (priority 2010, published 2013)
